ChEMBL document CHEMBL4414672, “Synthesis of certain benzothieno[3,2-d]pyrimidine derivatives as a selective SIRT2 inhibitors” (Eur J Med Chem, 2020)

Tests used:
Format in all cases: functional
SNB-19 = assay: Growth inhibition of human SNB19 cells at 10^-5 M incubated for 48 hrs by sulforhodamine B assay; details: SNB-19, 48 h, read-out: GI
SK-MEL-2 = assay: Growth inhibition of human SK-MEL-2 cells at 10^-5 M incubated for 48 hrs by sulforhodamine B assay; details: SK-MEL-2, 48 h, read-out: GI
BT-549 = assay: Growth inhibition of human BT549 cells at 10^-5 M incubated for 48 hrs by sulforhodamine B assay; details: BT-549, 48 h, read-out: GI
SN12C = assay: Growth inhibition of human SN12C cells at 10^-5 M incubated for 48 hrs by sulforhodamine B assay; details: read-out: GI
SF-268 = assay: Growth inhibition of human SF268 cells at 10^-5 M incubated for 48 hrs by sulforhodamine B assay; details: SF-268, 48 h, read-out: GI
NCI/ADR-RES = assay: Growth inhibition of human NCI/ADR-RES cells at 10^-5 M incubated for 48 hrs by sulforhodamine B assay; details: read-out: GI
MDA-MB-468 = assay: Growth inhibition of human MDA-MB-468 cells at 10^-5 M incubated for 48 hrs by sulforhodamine B assay; details: MDA-MB-468, 48 h, read-out: GI
NCI-H23 = assay: Growth inhibition of human NCI-H23 cells at 10^-5 M incubated for 48 hrs by sulforhodamine B assay; details: NCI-H23, 48 h, read-out: GI
NCI-H322M = assay: Growth inhibition of human NCI-H322M cells at 10^-5 M incubated for 48 hrs by sulforhodamine B assay; details: read-out: GI
K562 = assay: Growth inhibition of human K562 cells at 10^-5 M incubated for 48 hrs by sulforhodamine B assay; details: K562, 48 h, read-out: GI
NCI-H522 = assay: Growth inhibition of human NCI-H522 cells at 10^-5 M incubated for 48 hrs by sulforhodamine B assay; details: NCI-H522, 48 h, read-out: GI
MCF7 = assay: Growth inhibition of human MCF7 cells at 10^-5 M incubated for 48 hrs by sulforhodamine B assay; details: MCF7, 48 h, read-out: GI
PC-3 = assay: Growth inhibition of human PC3 cells at 10^-5 M incubated for 48 hrs by sulforhodamine B assay; details: PC-3, 48 h, read-out: GI
ACHN = assay: Growth inhibition of human ACHN cells at 10^-5 M incubated for 48 hrs by sulforhodamine B assay; details: read-out: GI
A498 = assay: Growth inhibition of human A498 cells at 10^-5 M incubated for 48 hrs by sulforhodamine B assay; details: A498, 48 h, read-out: GI
HT-29 = assay: Growth inhibition of human HT-29 cells at 10^-5 M incubated for 48 hrs by sulforhodamine B assay; details: HT-29, 48 h, read-out: GI
UO-31 = assay: Growth inhibition of human UO31 cells at 10^-5 M incubated for 48 hrs by sulforhodamine B assay; details: UO-31, 48 h, read-out: GI
OVCAR-3 = assay: Growth inhibition of human OVCAR3 cells at 10^-5 M incubated for 48 hrs by sulforhodamine B assay; details: OVCAR-3, 48 h, read-out: GI
Malme-3M = assay: Growth inhibition of human MALME-3M cells at 10^-5 M incubated for 48 hrs by sulforhodamine B assay; details: read-out: GI
CCRF-CEM = assay: Growth inhibition of human CCRF-CEM cells at 10^-5 M incubated for 48 hrs by sulforhodamine B assay; details: read-out: GI
OVCAR-4 = assay: Growth inhibition of human OVCAR4 cells at 10^-5 M incubated for 48 hrs by sulforhodamine B assay; details: OVCAR-4, 48 h, read-out: GI

Row | SMILES | inhibition of growth at 10 µM (SNB-19) | inhibition of growth at 10 µM (SK-MEL-2) | inhibition of growth at 10 µM (BT-549) | inhibition of growth at 10 µM (SN12C) | inhibition of growth at 10 µM (SF-268) | inhibition of growth at 10 µM (NCI/ADR-RES) | inhibition of growth at 10 µM (MDA-MB-468) | inhibition of growth at 10 µM (NCI-H23) | inhibition of growth at 10 µM (NCI-H322M) | inhibition of growth at 10 µM (K562) | inhibition of growth at 10 µM (NCI-H522) | inhibition of growth at 10 µM (MCF7) | inhibition of growth at 10 µM (PC-3) | inhibition of growth at 10 µM (ACHN) | inhibition of growth at 10 µM (A498) | inhibition of growth at 10 µM (HT-29) | inhibition of growth at 10 µM (UO-31) | inhibition of growth at 10 µM (OVCAR-3) | inhibition of growth at 10 µM (Malme-3M) | inhibition of growth at 10 µM (CCRF-CEM) | also measured
1 | O=C1Nc2c(sc3ccc(Cl)cc23)C(c2cccc(Br)c2)N1 (centres undefined) | 0.22% | -9.69% | -17.5% | 2.71% | 0.19% | 12.2% | -26.3% | 9.39% | 5.33% | 6.28% | -0.2% | -8.69% | 0.46% | 5.37% | -8.2% | -7.8% | -23.4% | 6.24% | 2.75% | -14.4% | inhibition of growth at 10 µM (OVCAR-4): -6.24%
2 | N=C1Nc2c(sc3ccc(Cl)cc23)C(c2ccccc2O)N1 (centres undefined) | -3.35% | 0.27% | 17.5% | -22.4% | 6.19% | 7.92% | 2.58% | 10.5% | 4.18% | -2.22% | 7.68% | 13.9% | -12.5% | 18.8% | 6.2% | -6.21% | 11.9% | -1.68% | 4.61% | -8.23% | inhibition of growth at 10 µM (OVCAR-4): 12.3%
3 | N=C1Nc2c(sc3ccc(Cl)cc23)C(c2cccc([N+](=O)[O-])c2)N1 (centres undefined) | 16.8% | -19.5% | 5.75% | -19.7% | -1.81% | 8.91% | 1.02% | 5.31% | 4.7% | 9.47% | -4.45% | 10.7% | -10.1% | 22.8% | 9.1% | 1.65% | 11.1% | 10.7% | -4.49% | 8.41% | inhibition of growth at 10 µM (OVCAR-4): -4.7%
4 | O=[N+]([O-])c1cccc(C2c3sc4ccc(Cl)cc4c3N=C3NN=NN32)c1 (centres undefined) | 7.13% | -23% | 9.57% | 9.98% | -8.1% | 3.11% | -8.85% | 1.39% | -3.77% | -7.43% | -7.9% | 15.4% | -11.3% | -27.8% | 18.1% | -2.76% | 14.5% | -0.5% | -4.76% | -11.4% | inhibition of growth at 10 µM (OVCAR-4): -6.3%
